Data: patent publication US7605168B2 (Plexxikon, Inc., priority 2004, dated 2009)

Columns and labels:
[1] = molecular target: T1, PDE4B2: full-length human PDE4B2 isozyme (Homo sapiens, UniProt Q07343); assay: PDE4 IC50 determination by Scintillation Proximity Assay (SPA), full-length PDE4B2; assay type: biochemical; settings: cell lysate, [3H]cAMP SPA
T1 construct: made in house; host or cells: baculovirus infected insect cells (pFastBacHT)
Method in brief: (§1)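 Unpurified enzyme from cell lysates (PDE4B2 2.5 μl, PDE4D5 0.083 μl of 50% glycerol stock/ml) hydrolysing [3H]cAMP in 50 mM Tris pH 7.5, 8.3 mM MgCl, 1.7 mM EGTA, 0.01% BSA, 30 min at 30 °C. Stopped with yttrium silicate SPA beads in 18 mM ZnSO4; bead-bound [3H]AMP counted. IC50 by non-linear regression.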

[2] = molecular target: T2, PDE4D5: full-length human PDE4D5 isozyme (Homo sapiens, UniProt Q08499); assay: PDE4 IC50 determination by Scintillation Proximity Assay (SPA), full-length PDE4D5; assay type: biochemical; settings: cell lysate, [3H]cAMP SPA
T2 construct: made in house; host or cells: baculovirus infected insect cells (pFastBacHT)
T2 sequence (Q08499 with tags, fused parts or gaps isoform Q08499-6): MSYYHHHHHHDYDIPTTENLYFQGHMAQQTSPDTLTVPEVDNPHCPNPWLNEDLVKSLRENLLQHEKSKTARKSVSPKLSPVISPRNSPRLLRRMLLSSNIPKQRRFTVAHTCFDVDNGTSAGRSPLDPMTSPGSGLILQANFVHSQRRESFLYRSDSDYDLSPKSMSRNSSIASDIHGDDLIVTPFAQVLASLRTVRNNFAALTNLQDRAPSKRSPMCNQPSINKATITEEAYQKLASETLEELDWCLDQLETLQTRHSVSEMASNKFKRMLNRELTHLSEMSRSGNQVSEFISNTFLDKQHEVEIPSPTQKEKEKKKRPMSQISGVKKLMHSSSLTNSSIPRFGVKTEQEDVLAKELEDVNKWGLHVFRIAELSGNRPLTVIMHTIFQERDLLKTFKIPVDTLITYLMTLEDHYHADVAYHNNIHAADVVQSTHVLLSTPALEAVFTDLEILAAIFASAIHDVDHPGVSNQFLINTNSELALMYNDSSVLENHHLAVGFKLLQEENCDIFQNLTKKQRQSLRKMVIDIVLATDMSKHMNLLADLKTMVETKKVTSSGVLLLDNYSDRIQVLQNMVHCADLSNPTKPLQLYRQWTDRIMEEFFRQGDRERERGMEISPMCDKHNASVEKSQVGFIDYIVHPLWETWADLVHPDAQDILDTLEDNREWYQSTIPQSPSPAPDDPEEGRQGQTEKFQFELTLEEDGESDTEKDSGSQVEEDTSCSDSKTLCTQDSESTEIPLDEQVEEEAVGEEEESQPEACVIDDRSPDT
Method in brief: as §1

[3] = test system: TNFα levels in serum of LPS-challenged rats; assay: Rat inhibition studies: serum TNFα after iv LPS challenge; assay type: in vivo; settings: 3 mg/kg po, LPS 0.1 mg/kg iv 2 h after dosing, percent decrease in serum TNFα versus vehicle, read-out: % inhibition r TNFα
Protocol: All studies were done with male rats CD (SD) IGS BR (Crl) (Charles River, France), which were grouped in to 5 animal groups.
At the end of the acclimatization period, the non-fasted rats were weighed, individually identified on the tail with a permanent marker and administered by oral (po) or interperitoneal (ip) route with either vehicle, reference or test compound in a volume of 10 mL/kg adapted to the body weight. The animals were gathered in groups of 5 animals in a polystyrene labeled cage with sawdust covered floors. 2-hours after vehicle, reference or test substance administration, rats received an intravenous (iv) injection of 0.1 mg/kg LPS in a volume of 1 mL/kg of body weight. 2 h after LPS challenge (or as indicated in Tables 3B and 4B), blood samples were collected into tubes without anticoagulant by retro-orbital puncture under gas (isoflurane) anesthesia. Samples were allowed to clot at room temperature for 5 to 10 min then put on ice until there were prepared by centrifugation (6000×g for 3 min at 4° C.) and stored at −20° C. until use. TNFα levels were measured in serum samples in duplicate by ELISA technique according to the manufacturer's procedure (Rat TNFα kit Quantikine M (RTA00, R&D System, France)). Data are reported as percent decrease in observed TNFα levels versus TNFα levels observed for vehicle dosed animal groups.

[4] = molecular target: T3, PDE4B: catalytic domain of human PDE4B from S152-S528 (Homo sapiens, UniProt Q07343); assay: PDE4 IC50 determination by Scintillation Proximity Assay (SPA), PDE4B catalytic domain; assay type: biochemical; settings: [3H]cAMP SPA, 30 min at 30° C.
T3 construct: The catalytic domain of human PDE4B from S152-S528; His6 (N, cleaved yes); thrombin cleavage site (N, cleaved yes); made in house; host or cells: E. coli BL21 (DE3) RIL
T3 sequence (Q07343 324-700): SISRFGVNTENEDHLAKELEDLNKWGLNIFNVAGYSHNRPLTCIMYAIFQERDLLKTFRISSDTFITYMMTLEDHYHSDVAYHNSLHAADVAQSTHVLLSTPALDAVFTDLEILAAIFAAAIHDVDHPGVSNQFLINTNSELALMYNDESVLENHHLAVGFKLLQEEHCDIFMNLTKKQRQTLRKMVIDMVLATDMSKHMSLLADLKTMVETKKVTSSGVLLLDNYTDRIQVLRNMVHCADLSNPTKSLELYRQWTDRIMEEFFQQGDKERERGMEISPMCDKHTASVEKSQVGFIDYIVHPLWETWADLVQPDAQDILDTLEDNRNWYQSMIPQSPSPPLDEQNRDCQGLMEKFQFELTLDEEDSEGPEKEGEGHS
Method in brief: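 Human PDE4B catalytic domain (80 ng/ml) hydrolysed [3H]cAMP in 50 mM Tris pH 7.5, 8.3 mM MgCl, 1.7 mM EGTA, 0.01% BSA for 30 min at 30 °C. Reaction was stopped with yttrium silicate SPA beads in 18 mM ZnSO4, and bound [3H]AMP was counted by scintillation. IC50 came from non-linear regression.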

[5] = molecular target: T4, PDE4D: catalytic domain S316-V692 (Homo sapiens, UniProt Q08499); assay: PDE4 IC50 determination by Scintillation Proximity Assay (SPA), PDE4D catalytic domain; assay type: biochemical; settings: [3H]cAMP SPA, 30 min at 30° C.
T4 construct: pET15S PDE4D S316-V692-X; His6 (N, cleaved yes); thrombin cleavage site (N, cleaved yes); made in house; host or cells: E. coli BL21 (DE3) RIL
T4 sequence (Q08499 380-756): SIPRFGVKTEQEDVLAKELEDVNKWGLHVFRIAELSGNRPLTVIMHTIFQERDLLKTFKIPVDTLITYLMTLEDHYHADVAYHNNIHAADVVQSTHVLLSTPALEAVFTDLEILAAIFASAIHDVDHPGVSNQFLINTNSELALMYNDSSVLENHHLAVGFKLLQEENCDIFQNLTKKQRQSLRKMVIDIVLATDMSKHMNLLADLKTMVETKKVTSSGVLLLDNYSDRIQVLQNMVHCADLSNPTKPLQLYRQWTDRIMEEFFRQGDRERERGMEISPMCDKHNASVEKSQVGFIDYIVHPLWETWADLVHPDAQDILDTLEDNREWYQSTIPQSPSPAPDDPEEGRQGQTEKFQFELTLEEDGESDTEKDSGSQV
Protocol: IC50s were determined by Scintillation Proximity Assay (SPA). The principle of the assay is based on the fact that cAMP, the PDE4 substrate, binds weakly to Yittrium Silicate SPA beads, whereas AMP, the product of PDE4 hydrolysis binds strongly. Thus, the extent of PDE4 hydrolysis of a sample of [^3H]cAMP can be measured because only the [^3H]AMP produced by PDE4 hydrolysis will bind to the SPA beads and produce a scintillation signal.
[…] Enzyme was stored in 50% glycerol at −20°. See Example 144.
Compounds tested (see Tables 5 for compounds and results) were 3-fold serially diluted 11 times in DMSO from a starting concentration of 4 mM or 40 μM, depending on compound potency. 1 μl of each dilution was transferred into duplicate wells of a white polystyrene 384-well assay plate (Corning #3710). In addition to the compound dilutions, each assay plate contained control wells with 1 μl of DMSO (to define 0% enzyme inhibition) or 1 μl of 200 μM roflumilast (to define 100% enzyme inhibition). Using a Beckman FX robot, 10 μl of [^3H] cAMP (Amersham TRK559) at […] in assay buffer (50 mM Tris, pH 7.5; 8.3 mM MgCl; 1.7 mM EGTA; 0.01% BSA) was transferred to each assay well. Next, 10 μl of PDE4 enzyme in assay buffer was added and the plates were shaken for 30 s. at 1000 rpm to start the cAMP hydrolysis reaction. The concentrations of enzyme used were: PDE4B, 80 ng/ml; PDE4D, 4 ng/ml; PDE4B2, 2.5 μl of 50% glycerol stock/ml; PDE4D5 0.083 μl of 50% glycerol stock/ml. Assay plates were covered and incubated for 30 min. at 30° C. Reactions were stopped by robotic addition of 10 μl of 5 mg/ml SPA beads (Amersham RPNQ0013) in 18 mM ZnSO4. The assay plates were covered with clear plastic film, centrifuged for 1 min. at 1000 RPM to settle the SPA beads, and counted using a Wallac TriLux scintillation counter. IC50's were calculated from the raw assay data by non-linear regression curve fitting using the Assay Explorer software package from MDL.

[6] = test system: TNF-α release from whole blood cultures stimulated with LPS; assay: IC50 by TNF alpha production upon stimulation of whole blood cultures with LPS; assay type: cell-based; settings: human whole blood (buffy coat) culture, 100 ng/ml LPS, 4 hours; read-out: h TNFα IC50
Method in brief: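 Human buffy coat, diluted with 7 volumes of RPMI/2.5% heat-inactivated FBS, was preincubated with compound (8-point 1:3 series) for 1 h at 37 °C. It was then stimulated with 100 ng/ml LPS (final) for 4 h. Supernatant TNF-α was measured by sandwich ELISA at 450 nm, and IC50 was set between DMSO (0%) and PDE4-inhibitor (100%) controls.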

T1 sequence (Q07343 with tags, fused parts or gaps isoform Q07343-2): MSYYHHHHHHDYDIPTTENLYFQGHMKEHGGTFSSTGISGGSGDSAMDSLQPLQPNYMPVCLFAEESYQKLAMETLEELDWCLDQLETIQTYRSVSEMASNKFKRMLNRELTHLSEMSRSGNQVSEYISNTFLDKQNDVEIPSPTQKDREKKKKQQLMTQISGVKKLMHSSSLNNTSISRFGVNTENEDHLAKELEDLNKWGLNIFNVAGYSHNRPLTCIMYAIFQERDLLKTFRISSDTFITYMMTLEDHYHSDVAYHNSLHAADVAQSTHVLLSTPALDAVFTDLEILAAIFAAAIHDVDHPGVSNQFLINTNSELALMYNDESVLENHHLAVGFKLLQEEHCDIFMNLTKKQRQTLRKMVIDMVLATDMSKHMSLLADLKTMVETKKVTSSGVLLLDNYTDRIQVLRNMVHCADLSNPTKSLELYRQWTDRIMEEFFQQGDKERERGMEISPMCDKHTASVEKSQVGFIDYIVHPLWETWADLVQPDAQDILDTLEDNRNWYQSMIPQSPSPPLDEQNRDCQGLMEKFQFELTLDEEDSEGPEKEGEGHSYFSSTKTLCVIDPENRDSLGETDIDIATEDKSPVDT

Row | SMILES | IC50 [1] | IC50 [2] | IC50 [4] | IC50 [5] | IC50 [6] | inhibition in vivo at 3 mg/kg [3]
1 | COc1ccc(-c2cn(C(=O)c3c(OCC(F)(F)F)ccc4ccccc34)c3ncccc23)cc1OC [Compound 112, [3-(3,4-Dimethoxy-phenyl)-pyrrolo[2,3-b]pyridin-1-yl]-[2-(2,2,2-trifluoro-ethoxy)-naphthalen-1-yl]-methanone] | < 10 µM | < 10 µM |  |  |  | ≥ 20%
2 | COc1ccc(-c2cn(S(=O)(=O)c3ccc(-c4ccncc4C)cc3)c3ncccc23)cc1OC [Compound 69, 3-(3,4-Dimethoxy-phenyl)-1-[4-(3-methyl-pyridin-4-yl)-benzenesulfonyl]-1H-pyrrolo[2,3-b]pyridine] | < 10 µM | < 10 µM | < 10 µM | ≤ 10 µM | ≤ 10 µM | 
3 | COc1ccc(-c2c[nH]c3ncccc23)cc1OC [Compound 1, 3-(3,4-dimethoxy-phenyl)-1H-pyrrolo[2,3-b]pyridine] | < 10 µM | < 10 µM | < 10 µM | ≤ 10 µM | ≤ 10 µM | 
4 | COc1ccc(-c2cn(C(=O)c3ccc4c(OC(C)=O)cccc4c3)c3ncccc23)cc1OC [Compound 62, Acetic acid 6-[3-(3,4-dimethoxy-phenyl)-pyrrolo[2,3-b]pyridine-1-carbonyl]-naphthalen-1-yl ester-amide] | < 10 µM | < 10 µM | < 10 µM | ≤ 10 µM | ≤ 10 µM | 
5 | COc1ccc(-c2cn(S(=O)(=O)c3cccc4cccnc34)c3ccccc23)cc1OC1CCCC1 [Compound 100, 8-[3-(3-Cyclopentyloxy-4-methoxy-phenyl)-indole-1-sulfonyl]-quinoline] | < 10 µM | < 10 µM | < 10 µM | ≤ 10 µM | ≤ 10 µM | 
6 | COc1ccc(-c2cn(C(=O)c3csc4ccccc34)c3ncccc23)cc1OC [Compound 63, Benzo[b]thiophen-3-yl-[3-(3,4-dimethoxy-phenyl)-pyrrolo[2,3-b]pyridin-1-yl]-methanone] | < 10 µM | < 10 µM | < 10 µM | ≤ 10 µM | ≤ 10 µM | 
7 | COc1ccc(-c2cn(C(=O)Nc3ccc(F)c([N+](=O)[O-])c3)c3ncccc23)cc1OC [Compound 31, 3-(3,4-Dimethoxy-phenyl)-pyrrolo[2,3-b]pyridine-1-carboxylic acid (4-fluoro-3-nitro-phenyl)-amide] | < 10 µM | < 10 µM | < 10 µM | ≤ 10 µM | ≤ 10 µM | 
8 | COc1ccc(-c2cn(S(=O)(=O)Cc3cccc([N+](=O)[O-])c3)c3ncccc23)cc1OC [Compound 18, 3-(3,4-dimethoxy-phenyl)-1-(3-nitro-phenylmethanesulfonyl)-1H-pyrrolo[2,3-b]pyridine] | < 10 µM | < 10 µM | < 10 µM | ≤ 10 µM | ≤ 10 µM | 
9 | COc1ccc(-c2cn(C(=O)c3ccnc4ccccc34)c3ncccc23)cc1OC [Compound 115, [3-(3,4-Dimethoxy-phenyl)-pyrrolo[2,3-b]pyridin-1-yl]-quinolin-4-yl-methanone] | < 10 µM | < 10 µM | < 10 µM | ≤ 10 µM | ≤ 10 µM | 
10 | COc1cccc(NC(=O)n2cc(-c3ccc(OC)c(OC)c3)c3cccnc32)c1 [Compound 32, 3-(3,4-Dimethoxy-phenyl)-pyrrolo[2,3-b]pyridine-1-carboxylic acid (3-methoxy-phenyl)-amide] | < 10 µM | < 10 µM | < 10 µM | ≤ 10 µM | > 10 µM | 

Further lines, with some results ahead:

Row | IC50 [1] | IC50 [2] | IC50 [4] | IC50 [5] | IC50 [6] | SMILES | inhibition in vivo at 3 mg/kg [3]
11 | < 10 µM | < 10 µM | < 10 µM | ≤ 10 µM | ≤ 10 µM | COc1ccc(-c2cn(C(=O)c3ccc(N(C)C)c4ccccc34)c3ncccc23)cc1OC [Compound 109, [3-(3,4-Dimethoxy-phenyl)-pyrrolo[2,3-b]pyridin-1-yl]-(4-dimethylamino-naphthalen-1-yl)-methanone] | 
12 | < 10 µM | < 10 µM | < 10 µM | ≤ 10 µM | ≤ 10 µM | COc1ccc(-c2cn(C(=O)c3cc(C)nc4ccccc34)c3ncccc23)cc1OC [Compound 116, [3-(3,4-Dimethoxy-phenyl)-pyrrolo[2,3-b]pyridin-1-yl]-(2-methyl-quinolin-4-yl)-methanone] | 
13 | < 10 µM | < 10 µM | < 10 µM | ≤ 10 µM | ≤ 10 µM | COc1ccc(-c2cn(C(=O)c3cccnc3)c3ncccc23)cc1OC [Compound 56, [3-(3,4-Dimethoxy-phenyl)-pyrrolo[2,3-b]pyridin-1-yl]-(3-pyridylyl)-methanone-amide] | 
14 | < 10 µM | < 10 µM | < 10 µM | ≤ 10 µM | ≤ 10 µM | COc1ccc(-c2cn(S(=O)(=O)c3cc(C)cc4cccnc34)c3ncccc23)cc1OC [Compound 24] | 
15 | < 10 µM | < 10 µM | < 10 µM | ≤ 10 µM | ≤ 10 µM | COc1ccc(-c2cn(S(=O)(=O)c3cccc4cccnc34)c3ncccc23)cc1OC1CCCC1 [Compound 102, 8-[3-(3-Cyclopentyloxy-4-methoxy-phenyl)-pyrrolo[2,3-b]pyridine-1-sulfonyl]-quinoline] | 
16 | < 10 µM | < 10 µM | < 10 µM | ≤ 10 µM | ≤ 10 µM | COc1ccc(-c2cn(S(=O)(=O)c3ccccc3)c3ncccc23)cc1OC [Compound 5, 1-benzenesulfonyl-3-(3,4-dimethoxy-phenyl)-1H-pyrrolo[2,3-b]pyridine] | 
17 | < 10 µM | < 10 µM | < 10 µM | ≤ 10 µM | ≤ 10 µM | COc1ccc(-c2cn(S(=O)(=O)Cc3ccc(Cl)cc3)c3ncccc23)cc1OC [Compound 17, 1-(4-chloro-phenylmethanesulfonyl)-3-(3,4-dimethoxy-phenyl)-1H-pyrrolo[2,3-b]pyridine] | 
